In patent US12479847B2 (DANA-FARBER CANCER INSTITUTE, INC., priority 2019, dated 2025):

Experiments:
Assay in all cases: KINOMEscan (ScanMAX) kinase profiling
Assay type in all cases: binding
[1] = molecular target: T1, panel of 468 kinases (Homo sapiens, UniProt P10721, V559D); details: KIT(V559D); 1 μM; read-out: % control
T1 construct: purchased KINOMEscan (ScanMAX) service

[2] = molecular target: T2, panel of 468 kinases (Homo sapiens, UniProt P10721, L576P); details: KIT(L576P); 1 μM; read-out: % control
T2 construct: purchased KINOMEscan (ScanMAX) service

[3] = molecular target: T3, panel of 468 kinases (Homo sapiens, UniProt O95382); details: ASK2; 1 μM; read-out: % control
T3 construct: purchased KINOMEscan (ScanMAX) service
T3 sequence (O95382 1-1288): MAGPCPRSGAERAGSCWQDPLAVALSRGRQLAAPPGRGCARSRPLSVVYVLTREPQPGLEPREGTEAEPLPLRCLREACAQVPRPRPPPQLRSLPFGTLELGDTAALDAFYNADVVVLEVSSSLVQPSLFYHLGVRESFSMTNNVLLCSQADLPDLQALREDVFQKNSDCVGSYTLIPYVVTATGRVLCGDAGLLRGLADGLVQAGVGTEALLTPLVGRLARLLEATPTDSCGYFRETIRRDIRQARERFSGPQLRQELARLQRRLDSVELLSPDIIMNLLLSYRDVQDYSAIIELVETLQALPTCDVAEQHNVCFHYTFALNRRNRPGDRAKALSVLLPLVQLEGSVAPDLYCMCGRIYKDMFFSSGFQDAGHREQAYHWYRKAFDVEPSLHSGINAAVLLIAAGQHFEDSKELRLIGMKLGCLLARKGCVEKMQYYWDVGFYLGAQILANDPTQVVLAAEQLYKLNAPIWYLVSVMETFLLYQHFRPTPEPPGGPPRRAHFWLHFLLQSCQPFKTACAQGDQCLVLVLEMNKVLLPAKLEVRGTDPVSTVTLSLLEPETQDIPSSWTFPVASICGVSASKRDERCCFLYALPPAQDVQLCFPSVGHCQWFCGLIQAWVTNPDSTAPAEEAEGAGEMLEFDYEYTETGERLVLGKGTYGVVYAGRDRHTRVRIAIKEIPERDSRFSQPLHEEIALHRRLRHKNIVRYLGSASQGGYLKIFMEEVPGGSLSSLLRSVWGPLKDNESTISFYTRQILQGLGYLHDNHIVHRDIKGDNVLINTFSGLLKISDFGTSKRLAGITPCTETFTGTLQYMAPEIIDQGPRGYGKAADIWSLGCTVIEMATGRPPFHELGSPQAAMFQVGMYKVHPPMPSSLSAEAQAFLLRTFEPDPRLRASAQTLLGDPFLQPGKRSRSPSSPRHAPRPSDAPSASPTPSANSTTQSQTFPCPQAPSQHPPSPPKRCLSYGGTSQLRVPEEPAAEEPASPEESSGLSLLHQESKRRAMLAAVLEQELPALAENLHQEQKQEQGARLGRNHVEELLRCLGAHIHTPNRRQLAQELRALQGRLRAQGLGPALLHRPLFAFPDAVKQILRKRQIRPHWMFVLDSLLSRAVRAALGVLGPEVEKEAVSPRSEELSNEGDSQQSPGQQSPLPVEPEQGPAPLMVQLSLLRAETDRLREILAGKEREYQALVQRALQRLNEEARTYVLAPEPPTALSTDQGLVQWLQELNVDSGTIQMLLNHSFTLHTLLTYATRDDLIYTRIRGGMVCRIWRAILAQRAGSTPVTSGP

[4] = molecular target: T4, panel of 468 kinases (Homo sapiens, UniProt Q05655); details: PRKCD; 1 μM; read-out: % control
T4 construct: purchased KINOMEscan (ScanMAX) service

[5] = molecular target: T5, panel of 468 kinases (Homo sapiens, UniProt P42336, E545A); details: PIK3CA(E545A); 1 μM; read-out: % control
T5 construct: purchased KINOMEscan (ScanMAX) service

[6] = molecular target: T6, panel of 468 kinases (Homo sapiens, UniProt Q9NRH2); details: SNRK; 1 μM; read-out: % control
T6 construct: purchased KINOMEscan (ScanMAX) service
T6 sequence (Q9NRH2 1-765): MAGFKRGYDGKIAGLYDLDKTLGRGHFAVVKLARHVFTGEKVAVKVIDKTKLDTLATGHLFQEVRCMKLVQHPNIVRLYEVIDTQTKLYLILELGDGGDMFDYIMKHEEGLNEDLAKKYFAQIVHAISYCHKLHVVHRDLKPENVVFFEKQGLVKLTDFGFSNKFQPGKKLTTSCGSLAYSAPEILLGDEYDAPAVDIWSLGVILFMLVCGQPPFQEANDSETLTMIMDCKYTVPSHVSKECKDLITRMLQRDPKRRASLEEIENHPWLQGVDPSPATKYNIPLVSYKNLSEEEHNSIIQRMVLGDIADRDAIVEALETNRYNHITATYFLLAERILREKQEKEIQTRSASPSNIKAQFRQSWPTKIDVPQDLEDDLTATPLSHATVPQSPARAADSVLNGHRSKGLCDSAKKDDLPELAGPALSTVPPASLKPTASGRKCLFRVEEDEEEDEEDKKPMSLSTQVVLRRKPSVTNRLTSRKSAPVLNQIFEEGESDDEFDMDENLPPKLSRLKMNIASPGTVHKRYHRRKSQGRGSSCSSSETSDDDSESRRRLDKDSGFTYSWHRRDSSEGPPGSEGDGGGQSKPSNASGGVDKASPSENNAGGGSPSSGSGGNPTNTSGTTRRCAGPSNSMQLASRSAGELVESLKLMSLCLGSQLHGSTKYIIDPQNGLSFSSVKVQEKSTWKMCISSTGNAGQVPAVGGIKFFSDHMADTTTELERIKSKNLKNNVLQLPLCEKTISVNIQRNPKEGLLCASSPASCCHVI

[7] = molecular target: T7, panel of 468 kinases (Homo sapiens, UniProt P50613); details: CDK7; 1 μM; read-out: % control
T7 construct: purchased KINOMEscan (ScanMAX) service
T7 sequence (P50613 whole entry): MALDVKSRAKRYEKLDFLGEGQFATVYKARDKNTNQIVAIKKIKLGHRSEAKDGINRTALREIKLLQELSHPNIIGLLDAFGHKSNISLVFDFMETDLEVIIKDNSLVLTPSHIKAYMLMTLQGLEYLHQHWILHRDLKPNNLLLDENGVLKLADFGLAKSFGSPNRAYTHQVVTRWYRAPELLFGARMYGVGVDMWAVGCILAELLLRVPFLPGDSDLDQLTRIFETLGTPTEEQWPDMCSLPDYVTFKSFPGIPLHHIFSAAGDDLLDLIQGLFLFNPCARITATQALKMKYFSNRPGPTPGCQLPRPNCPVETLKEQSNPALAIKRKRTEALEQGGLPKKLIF

T1 sequence (P10721 26-976 V559D): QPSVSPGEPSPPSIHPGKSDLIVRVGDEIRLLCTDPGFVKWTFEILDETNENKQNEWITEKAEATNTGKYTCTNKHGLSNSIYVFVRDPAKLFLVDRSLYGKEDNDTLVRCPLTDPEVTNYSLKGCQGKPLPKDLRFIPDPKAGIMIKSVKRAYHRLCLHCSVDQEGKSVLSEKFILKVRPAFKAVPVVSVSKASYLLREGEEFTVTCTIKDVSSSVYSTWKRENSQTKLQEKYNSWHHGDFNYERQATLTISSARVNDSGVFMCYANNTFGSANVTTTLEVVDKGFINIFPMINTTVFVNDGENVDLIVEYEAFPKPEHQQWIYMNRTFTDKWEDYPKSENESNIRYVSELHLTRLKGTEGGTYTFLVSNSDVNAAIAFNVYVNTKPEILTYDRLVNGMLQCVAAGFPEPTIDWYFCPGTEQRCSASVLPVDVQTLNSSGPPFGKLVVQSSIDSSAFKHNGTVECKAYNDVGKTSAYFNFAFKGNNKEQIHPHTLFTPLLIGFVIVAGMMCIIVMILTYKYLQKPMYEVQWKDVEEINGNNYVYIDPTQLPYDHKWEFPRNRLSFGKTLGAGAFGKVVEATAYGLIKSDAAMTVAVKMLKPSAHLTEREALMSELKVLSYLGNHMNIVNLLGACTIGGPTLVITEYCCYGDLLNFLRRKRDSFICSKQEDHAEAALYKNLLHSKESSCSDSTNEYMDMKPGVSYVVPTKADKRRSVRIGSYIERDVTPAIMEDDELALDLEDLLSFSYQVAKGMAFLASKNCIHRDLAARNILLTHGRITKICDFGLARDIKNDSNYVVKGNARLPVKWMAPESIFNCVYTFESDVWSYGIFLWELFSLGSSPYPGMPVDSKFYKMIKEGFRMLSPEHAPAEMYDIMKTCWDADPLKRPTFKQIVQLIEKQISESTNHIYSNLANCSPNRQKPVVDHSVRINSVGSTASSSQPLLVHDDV
T2 sequence (P10721 26-976 L576P): as the sequence (P10721 26-976 V559D) above, with D534V, L551P counted along it
T4 sequence (Q05655 whole entry): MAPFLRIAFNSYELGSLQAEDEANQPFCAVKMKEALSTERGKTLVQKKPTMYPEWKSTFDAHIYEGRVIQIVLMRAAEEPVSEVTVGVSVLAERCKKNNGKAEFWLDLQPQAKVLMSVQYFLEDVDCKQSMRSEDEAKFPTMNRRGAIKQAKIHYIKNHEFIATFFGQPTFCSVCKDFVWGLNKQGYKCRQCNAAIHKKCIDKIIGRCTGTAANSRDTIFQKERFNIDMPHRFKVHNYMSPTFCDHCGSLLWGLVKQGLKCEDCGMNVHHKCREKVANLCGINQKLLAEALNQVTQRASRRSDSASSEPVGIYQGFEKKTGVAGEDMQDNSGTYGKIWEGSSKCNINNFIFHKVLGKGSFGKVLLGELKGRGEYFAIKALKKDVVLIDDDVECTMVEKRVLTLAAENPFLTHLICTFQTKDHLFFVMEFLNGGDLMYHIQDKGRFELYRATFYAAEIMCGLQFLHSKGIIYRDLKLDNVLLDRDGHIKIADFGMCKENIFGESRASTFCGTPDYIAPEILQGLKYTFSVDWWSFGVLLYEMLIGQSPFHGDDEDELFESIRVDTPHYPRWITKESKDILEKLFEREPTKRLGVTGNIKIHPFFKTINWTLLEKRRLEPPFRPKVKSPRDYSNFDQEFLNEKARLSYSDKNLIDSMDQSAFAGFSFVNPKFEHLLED
T5 sequence (P42336 whole entry E545A): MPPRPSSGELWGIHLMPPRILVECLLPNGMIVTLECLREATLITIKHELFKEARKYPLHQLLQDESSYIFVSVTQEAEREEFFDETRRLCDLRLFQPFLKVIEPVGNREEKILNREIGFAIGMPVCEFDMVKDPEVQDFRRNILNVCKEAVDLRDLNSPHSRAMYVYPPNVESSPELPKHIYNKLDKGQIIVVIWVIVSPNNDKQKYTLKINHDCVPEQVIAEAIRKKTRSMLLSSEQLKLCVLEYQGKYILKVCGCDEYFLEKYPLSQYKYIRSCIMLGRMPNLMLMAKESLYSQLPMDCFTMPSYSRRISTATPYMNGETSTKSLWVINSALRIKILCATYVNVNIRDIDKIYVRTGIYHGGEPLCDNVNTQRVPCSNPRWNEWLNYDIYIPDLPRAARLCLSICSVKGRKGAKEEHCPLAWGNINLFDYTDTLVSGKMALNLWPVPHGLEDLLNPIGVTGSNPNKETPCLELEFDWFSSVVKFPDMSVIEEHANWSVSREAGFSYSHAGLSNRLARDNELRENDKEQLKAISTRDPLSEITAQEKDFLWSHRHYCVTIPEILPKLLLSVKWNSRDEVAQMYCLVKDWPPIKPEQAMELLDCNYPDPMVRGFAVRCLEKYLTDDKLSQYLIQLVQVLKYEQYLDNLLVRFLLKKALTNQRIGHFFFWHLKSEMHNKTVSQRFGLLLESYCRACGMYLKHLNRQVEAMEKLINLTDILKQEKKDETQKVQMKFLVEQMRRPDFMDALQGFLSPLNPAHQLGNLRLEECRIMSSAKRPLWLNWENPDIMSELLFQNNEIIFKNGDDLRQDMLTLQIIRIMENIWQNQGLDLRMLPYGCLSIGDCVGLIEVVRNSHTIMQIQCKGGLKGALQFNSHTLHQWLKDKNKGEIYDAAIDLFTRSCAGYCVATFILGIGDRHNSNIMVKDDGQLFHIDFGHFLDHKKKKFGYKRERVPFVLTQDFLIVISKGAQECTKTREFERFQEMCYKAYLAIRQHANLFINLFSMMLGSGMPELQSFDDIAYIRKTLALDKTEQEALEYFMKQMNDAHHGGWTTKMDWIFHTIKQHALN

Structure (SMILES)	remaining binding at 1 µM [1] [%]	remaining binding at 1 µM [2] [%]	remaining binding at 1 µM [3] [%]	remaining binding at 1 µM [4] [%]	remaining binding at 1 µM [5] [%]	remaining binding at 1 µM [6] [%]	remaining binding at 1 µM [7] [%]
CNc1nc(Nc2ccc(S(=O)(=O)N3CCC(N4CCOCC4)CC3)cc2OC)nc2[nH]cc(Cl)c12 [Compound 12, 5-chloro-N2-(2-methoxy-4-((4-morpholinopiperidin-1-yl)sulfonyl)phenyl)-N4-methyl-7H-pyrrolo[2,3-d]pyrimidine-2,4-diamine]	80	97	53	94	100	91	98
CNc1nc(Nc2ccc(C(=O)N3CCC(N4CCOCC4)CC3)c3c2OCO3)nc2[nH]cc(Cl)c12 [Compound 75, (7-((5-chloro-4-(methylamino)-7H-pyrrolo[2,3-d]pyrimidin-2-yl)amino)benzo[d][1,3]dioxol-4-yl)(4-morpholinopiperidin-1-yl)methanone]	39	36	39	89	100	87	21
CNc1nc(Nc2ccc(P3(=O)CCN(C4CCOCC4)CC3)cc2OC)nc2[nH]cc(Cl)c12 [Compound 77, 4-(4-((5-chloro-4-(methylamino)-7H-pyrrolo[2,3-d]pyrimidin-2-yl)amino)-3-methoxyphenyl)-1-(tetrahydro-2H-pyran-4-yl)-1,4-azaphosphinane 4-oxide]	90	100	51	95	100	50	86
